Experimental data: US20250188032A1, “NITROGEN-CONTAINING HETEROCYCLIC COMPOUNDS AND USES THEREOF” (BNH RESEARCH CO., LTD., priority 2022, published 2025)
Where “and” joins values, the source holds several entries; their conditions need not be identical. Equal values may be shown once.

Key:
GluN2B = experiment: Western blot of GluN2B protein in cultured fetal cortical cells; assay type: cell-based, mice; settings: for GluN2B expression, Western blot results, Mean: relative value, vehicle set to 1, treated for 24 hours, N 3 or more; for Effect on GluN2B expression compared to the vehicle: comment on Table 6
Experimental: The amount of GluN2B reacted with the compound of the present disclosure was measured using Western blot. The fetal cerebral cortex was extracted from mice at 17 days of gestation, dissociated into single cells, cultured for 13 days, and treated with BnH drugs for 24 hours. The drug-treated cells were subjected to protein lysate preparation using RIPA protein lysis buffer containing protease and phosphatase inhibitors. The protein concentration was determined using a BCA protein assay kit (Pierce Biotechnology) using bovine serum albumin as a standard. Equal amounts of protein (20 μg per lane) were separated by electrophoresis on SDS-polyacrylamide gels at 90 V for 2 hours, then transferred from the SDS-polyacrylamide gel to PVDF membrane at 100 V for 1 hour. Then, primary reaction with GluN2B antibody (ab65783, Abcam) was performed at 4° C. for 1 day, washed three times at 10-minutes intervals with 1×PBT, and secondary reaction was performed with anti-mouse antibody (sc-2357, Santa Cruz) for 1 hour, followed by washing three times at 10-minutes intervals with 1×PBT. Western blotting was performed as described above to confirm GluN2B protein expression. Subsequently, each blot was re-probed using anti-β-actin antibody (sc-47778, Santa Cruz). Housekeeping protein β-actin was detected as a normalization control.
The increase and decrease of BnH12 series were confirmed by setting the vehicle to 1 (N for each group was 3 or more).
Using the experimental procedure described in Example 3, it was determined whether various BnH12 series compounds increase GluN2B expression, and the results are shown in Table 6. These in vitro experimental results are expressed as relative values to the group (vehicle) that was not treated with the compound, with the effect of the group set to 1.

293T cells = experiment: Cytotoxicity test (CCK-8 cell viability) in 293T cells; assay type: cell-based, human; settings: 24 hours co-incubation, 293T cell line, % of control
Experimental: Human undifferentiated neuroblastoma cell line SH-SY5Y and human embryonic kidney cell line (HEK)-293T were purchased from Korean Cell Line Bank (Korea) and Takara (Japan), respectively. Cells were grown in HyClone Minimal Essential Medium (MEM) and Dulbecco's Modified Eagle Medium (DMEM), respectively, supplemented with 10% (v/v) fetal bovine serum (FBS), penicillin (100 U/mL), and streptomycin ([…]). Cells were maintained in a humidified atmosphere of 95% air and 5% CO2 at 37° C. Cells were passaged 10 times at maximum. Cells were dissociated using 0.05% trypsin-EDTA solution and the cells were seeded in new culture dishes for maintenance.
To examine the cytotoxicity of compounds described herein in human cell lines, SH-SY5Y and 293T cells were used. Approximately 8,000 cells (for 293T) and 15,000 cells (for SH-SY5Y) were plated per well of a 96-well plate (SPL Life Sciences Co., Ltd., Pocheon, Korea). After incubating at 37° C. for 24 hours in a humidified atmosphere containing 5% CO2, the culture medium was replaced by a series of concentrations of test compounds diluted in the corresponding culture medium. The time of co-incubation was 24 hours and six replicates were made for each measurement. Finally, 10 μL of CCK-8 reagent (Dojindo Laboratories, Rockville, MD) was added to each well, and after incubation at 37° C. for 3 minutes, the OD at 450 nm was measured using a multifunction microplate reader (Tecan Infinite M200 Pro). These measurements were compared to that of a control and expressed as a percentage of the control to calculate cell viability. The IC50 value was calculated using SPSS software. To do this, the absorbance of the blank wells with only growth medium is subtracted from the values or the wells with cells. The readout value of background (vehicle) was set as a 100% viability, and then the percent viability for each test solution was calculated.
Cell viability (%)=[(As-Ab)/(Ac-Ab)]×100
The data was presented as the mean value and standard error of the mean (S.E.M.). Statistical analysis was performed with the one-way ANOVA with Tukey's post hoc test (GraphPad Prism 5 software package, version 5.02, GraphPad Software Inc. USA). Significance was accepted at p<0.05.

Row | SMILES | GluN2B expression, Western blot results, Mean (GluN2B) | Cell viability test results (CCK) 10 uM (293T cells) | Cell viability test results (CCK) 100 uM (293T cells) | Effect on GluN2B expression compared to the vehicle (GluN2B)
1 | C[C@H]1CC[C@@H](C(=O)O)CN1C(=O)c1ccccc1 [BnH12065, (3R,6S)-1-benzoyl-6-methylpiperidine-3-carboxylic acid] | 1.326 | 95%< | 95%< | –
2 | O=C(NO)[C@H]1CCCN1C(=O)c1ccccc1 [BnH12018, (R)-1-benzoyl-N-hydroxypyrrolidine-2-carboxamide] | 1.381 | 90%< | 90%< | excellent effects
3 | C[C@H]1CC[C@@H](C(=O)O)CN1CCc1ccc(F)cc1Cl [BnH12010, (3R,6S)-1-(2-chloro-4-fluorophenethyl)-6-methylpiperidine-3-carboxylic acid] | 1.074 | – | – | –
4 | C[C@@H]1CC[C@H](C(=O)[O-])CN1C(=O)Cc1cccnc1.[Na+] [BnH12068, Sodium (3S,6R)-6-methyl-1-(2-(pyridin-3-yl)acetyl)piperidine-3-carboxylate] | 1.286 | – | – | –
5 | C[C@H]1CCCCN1C(=O)Cc1ccc(F)cc1Cl [BnH12005, (S)-2-(2-chloro-4-fluorophenyl)-1-(2-methylpiperidin-1-yl)ethan-1-one] | 1.206 | 99%< | 90%< | –
6 | C[C@H]1CC[C@@H](C(=O)NO)CN1C(=O)Cc1ccc(F)cc1Cl [BnH12009, (3R,6S)-1-(2-(2-chloro-4-fluorophenyl)acetyl)-N-hydroxy-6-methylpiperidine-3-carboxamide] | 1.248 | 95%< | 90%< | –
7 | C[C@H]1CCCCN1C(=O)Cc1cccnc1 [BnH12060, (S)-1-(2-methylpiperidin-1-yl)-2-(pyridin-3-yl)ethan-1-one] | 1.469 | 99%< | 99%< | excellent effects
8 | COc1ccc(CC(=O)N2C[C@H](C(=O)O)CC[C@@H]2C)cc1 [BnH12025, (3R,6S)-1-(2-(4-methoxyphenyl)acetyl)-6-methylpiperidine-3-carboxylic acid] | 1.582 | 90%< | 80%< | excellent effects
9 | C[C@H]1CC[C@@H](C(=O)O)CN1C(=O)Cc1cccc([N+](=O)[O-])c1 [BnH12073, (3R,6S)-6-methyl-1-(2-(3-nitrophenyl)acetyl)piperidine-3-carboxylic acid] | 2.013 | 85%< | 85%< | excellent effects
10 | C[C@H]1CC[C@@H](C(=O)[O-])CN1C(=O)Cc1ccccn1.[Na+] [BnH12039, Sodium (3R,6S)-6-methyl-1-(2-(pyridin-2-yl)acetyl)piperidine-3-carboxylate] | 1.103 | 95%< | 90%< | –
11 | C[C@H]1CC[C@@H](C(=O)O)CN1C(=O)Cc1ccccc1 [BnH12007, (3R,6S)-6-methyl-1-(2-phenylacetyl)piperidine-3-carboxylic acid] | 1.311 | 95%< | 95%< | –
12 | O=C(NO)[C@@H]1CCCN1C(=O)Cc1ccc(F)cc1Cl [BnH12016, (S)-1-(2-(2-chloro-4-fluorophenyl)acetyl)-N-hydroxypyrrolidine-2-carboxamide] | 1.311 | 99%< | 90%< | –
13 | C[C@H]1CC[C@@H](C(=O)O)CN1C(=O)Cc1ccc([N+](=O)[O-])cc1 [BnH12069, (3R,6S)-6-methyl-1-(2-(4-nitrophenyl)acetyl)piperidine-3-carboxylic acid] | 1.993 | 95%< and 80%< | 95%< and 80%< | excellent effects
14 | C[C@H]1CC[C@@H](C(=O)O)CN1C(=O)Cc1ccc(O)cc1 [BnH12079, (3R,6S)-1-(2-(4-hydroxyphenyl)acetyl)-6-methylpiperidine-3-carboxylic acid] | 1.062 | 99%< | 90%< | –
15 | C[C@H]1CC[C@@H](C(=O)O)CN1C(=O)CC1CCCCC1 [BnH12006, (3R,6S)-1-(2-cyclohexylacetyl)-6-methylpiperidine-3-carboxylic acid] | 1.238 | 99%< | 95%< | –
16 | CC(C)C1CCC(C(=O)O)CN1C(=O)Cc1ccc(F)cc1Cl (stereo not drawn) [BnH12096, 1-(2-(2-chloro-4-fluorophenyl)acetyl)-6-isopropylpiperidine-3-carboxylic acid] | 2.848 | 70%< | 65%< | excellent effects
17 | C[C@H]1CC[C@@H](C(=O)[O-])CN1C(=O)Cc1cccnc1.[Na+] [BnH12038, Sodium (3R,6S)-6-methyl-1-(2-(pyridin-3-yl)acetyl)piperidine-3-carboxylate] | 1.811 | 85%< | 85%< | excellent effects
18 | COc1ccc(CC(=O)N2C[C@@H](C(=O)O)CC[C@H]2C)cc1 [BnH12063, (3S,6R)-1-(2-(4-methoxyphenyl)acetyl)-6-methylpiperidine-3-carboxylic acid] | 1.652 | 95%< | 95%< | excellent effects
19 | C[C@H]1CCCCN1C(=O)Cc1ccccc1 [BnH12061, (S)-1-(2-methylpiperidin-1-yl)-2-phenylethan-1-one] | 1.683 | 95%< | 95%< | excellent effects
20 | C[C@H]1CC[C@@H](C(=O)O)CN1C(=O)Cc1cccc(N)c1 [BnH12074, (3R,6S)-1(2-(3-aminophenyl)acetyl)-6-methylpiperidine-3-carboxylic acid] | 2.146 | 85%< | 80%< | excellent effects
21 | C[C@H]1CC[C@@H](C(=O)O)CN1C(=O)Cc1ccc(N)cc1 [BnH12070, (3R,6S)-1-(2-(4-aminophenyl)acetyl)-6-methylpiperidine-3-carboxylic acid] | 1.302 | 99%< | 90%< | –
